Among the test systems are SNB-19; PC-3; NCI-H522; EKVX; SR; SW-620; HCT-15; T47D; MDA-MB-435; MOLT-4; CCRF-CEM; SK-MEL-5; ACHN; SN12C; HOP-62; Malme-3M; UACC-62; MCF7; BT-549.
What all share (experiment): inhibition of tumour cell growth, NCI panel, 48 h

Each structure is given as a SMILES string.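 96-well plates; 48 h exposure; 5 concentrations. Endpoints by linear interpolation between flanking doses. Not reached: highest tested concentration assigned. GI50 is the concentration that inhibits growth by half.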 Calls of active or inactive are those of the source. No stated cut-off is given here; in the data, active = GI50 up to about 1.1 µM and inactive = higher. Bounds are passed on as bounds.

With `C=C(Br)CNC(=O)Nc1ccc(Cl)c(Cl)c1`, the GI50 is 21.7 µM (inactive) with SNB-19; 11.2 µM (inactive) in the assay with PC-3; 18.6 µM (inactive) in the assay with NCI-H522; 28.1 µM (inactive) in the assay with EKVX; 30.9 µM (inactive) with SR; 35.4 µM (inactive) in the assay on SW-620. Also, the GI50 was 30.5 µM in the assay on HCT-15; 17.9 µM (inactive) in the assay with T47D; 20.3 µM (inactive) with MDA-MB-435; 26.2 µM (inactive) in the assay with MOLT-4; 19.3 µM (inactive) in the assay with CCRF-CEM; 13.8 µM (inactive) in the assay on SK-MEL-5. The GI50 is 17.5 µM (inactive) in the assay with ACHN; 25.2 µM (inactive) in the assay on SN12C; 22.5 µM (inactive) in the assay on HOP-62; 20.1 µM (inactive) in the assay on Malme-3M; 18.8 µM (inactive) in the assay with UACC-62.

Take `O=C(C=P(c1ccccc1)(c1ccccc1)c1ccccc1)c1ccc(-c2ccc(F)cc2F)cc1`: the GI50 is 4.73 µM (inactive) in the assay with SNB-19; 3.38 µM (inactive) in the assay with PC-3; 3.17 µM (inactive) in the assay with EKVX; 3.44 µM (inactive) in the assay with SR; 3.58 µM (inactive) with SW-620; 2.29 µM in the assay with HCT-15. In addition, the GI50 with T47D was 2.33 µM (inactive); in the assay with MCF7, 2.55 µM (inactive); in the assay with MDA-MB-435, 2.28 µM (inactive); in the assay on MOLT-4, 1.83 µM (inactive); with CCRF-CEM, 2.61 µM (inactive); in the assay with SK-MEL-5, 1.84 µM (inactive). For the same compound, the GI50 in the assay with ACHN is 2.44 µM (inactive); with SN12C, 2.31 µM (inactive); in the assay on HOP-62, 3.79 µM (inactive); in the assay on Malme-3M, 2.72 µM (inactive); in the assay with UACC-62, 1.85 µM (inactive).

On to `CC(C)(C)c1cc[n+](C[n+]2ccc(C(C)(C)C)cc2)cc1`, for which the GI50 with SNB-19, with PC-3, with NCI-H522, in the assay with EKVX, in the assay with SR and with SW-620 was > 100 µM (inactive) each time. The GI50 was more than 100 µM in the assay with HCT-15; > 100 µM (inactive) with T47D; > 100 µM (inactive) with MCF7; > 100 µM (inactive) in the assay on MDA-MB-435; > 100 µM (inactive) with MOLT-4; > 100 µM (inactive) in the assay with CCRF-CEM. In addition, the GI50 with SK-MEL-5, in the assay with ACHN, with SN12C, with HOP-62, in the assay with Malme-3M and in the assay on UACC-62 was > 100 µM (inactive) throughout.

In the case of `Cn1nc(S(N)(=O)=O)s/c1=N/S(=O)(=O)c1ccc(N)cc1`, the GI50 with SNB-19 was > 100 µM (inactive); in the assay with PC-3, > 100 µM (inactive); with EKVX it was > 100 µM (inactive); in the assay with SW-620, > 100 µM (inactive); with HCT-15, more than 100 µM; in the assay on MOLT-4 it was > 100 µM (inactive). The GI50 in the assay with BT-549, with ACHN, in the assay on HOP-62, in the assay with Malme-3M and with UACC-62 was > 100 µM (inactive) throughout.

As for `COc1ccc(C(O)c2nccn2C)c(OC)c1` (configuration not stated), the GI50 with SNB-19, in the assay with PC-3, in the assay with NCI-H522, in the assay on EKVX, with SR and with SW-620 was > 100 µM (inactive) in each case. In addition, the GI50 in the assay with HCT-15 was more than 100 µM; in the assay on MCF7, > 100 µM (inactive); in the assay on MOLT-4 it was > 100 µM (inactive); with CCRF-CEM, > 100 µM (inactive); in the assay on SK-MEL-5, 86.3 µM (inactive); in the assay on BT-549, > 100 µM (inactive). The GI50 with ACHN, in the assay with SN12C, in the assay with HOP-62, with Malme-3M and in the assay with UACC-62 was > 100 µM (inactive) in each case.

For `Nc1ccc(S2(c3ccc(N)cc3)C=C(c3ccccc3)C(c3ccccc3)=C2)cc1`, the GI50 in the assay on SNB-19 was > 45 µM (inactive); in the assay with PC-3, > 25.2 µM (inactive); with EKVX, > 100 µM (inactive); in the assay on SR, > 45.5 µM (inactive); in the assay with SW-620, > 57.7 µM (inactive); with HCT-15, more than 54.2 µM. The GI50 was > 100 µM (inactive) in the assay on T47D; > 32.1 µM (inactive) in the assay on MCF7; > 35.9 µM (inactive) with MDA-MB-435; > 73.8 µM (inactive) in the assay with MOLT-4; > 100 µM (inactive) with CCRF-CEM; > 100 µM (inactive) in the assay with SK-MEL-5. The GI50 in the assay on ACHN is > 28.6 µM (inactive); in the assay on SN12C, > 25.3 µM (inactive); in the assay with HOP-62 it was 70.8 µM (inactive); in the assay on Malme-3M, > 100 µM (inactive); with UACC-62 it was > 35.6 µM (inactive).

With `COc1cc2c(c(OC)c1OC)C(=O)[C@@H](O)[C@H]2NC(N)=O`, the GI50 was > 100 µM (inactive) in the assay with SNB-19; > 100 µM (inactive) with PC-3; > 100 µM (inactive) with NCI-H522; > 100 µM (inactive) in the assay with EKVX; > 100 µM (inactive) with SW-620; more than 100 µM in the assay on HCT-15. The GI50 was 31.6 µM (inactive) with T47D; > 100 µM (inactive) in the assay on MCF7; > 100 µM (inactive) with MDA-MB-435; > 100 µM (inactive) with MOLT-4; > 100 µM (inactive) with CCRF-CEM; > 100 µM (inactive) in the assay on SK-MEL-5. The GI50 with ACHN is > 100 µM (inactive); in the assay with SN12C, > 100 µM (inactive); with HOP-62, > 100 µM (inactive); in the assay with Malme-3M, > 100 µM (inactive); in the assay on UACC-62, 83.4 µM (inactive).

With `CCCCN/N=N/c1cn(C2OC(CO)C(O)C2O)c(=O)[nH]c1=O` (configuration not stated), the GI50 with SNB-19, with PC-3, with NCI-H522, with EKVX, in the assay with SR and with SW-620 was > 100 µM (inactive) each time. Moreover, the GI50 with HCT-15 is more than 100 µM; in the assay with T47D it was > 100 µM (inactive); in the assay on MCF7 it was > 100 µM (inactive); with MDA-MB-435, > 100 µM (inactive); in the assay on MOLT-4, > 100 µM (inactive); in the assay with CCRF-CEM it was > 100 µM (inactive). Further, the GI50 in the assay on SK-MEL-5, with ACHN, in the assay on SN12C, in the assay with HOP-62, in the assay with Malme-3M and with UACC-62 was > 100 µM (inactive) each time.

Turning to `COC(=O)C(=O)C(C(=O)C1=NS(=O)(=O)c2cc(S(N)(=O)=O)c(Cl)cc2N1)c1nc2ccc(C(=O)c3ccccc3)cc2nc1O` (configuration not stated), the GI50 was > 100 µM (inactive) in the assay on SNB-19; 37.2 µM (inactive) with NCI-H522; > 100 µM (inactive) with EKVX; 47.9 µM (inactive) with SR; > 100 µM (inactive) in the assay on SW-620; more than 100 µM with HCT-15. Further, the GI50 in the assay on MOLT-4 is 48.6 µM (inactive); in the assay on CCRF-CEM it was 75.5 µM (inactive); in the assay with SK-MEL-5, 40.2 µM (inactive); in the assay with ACHN it was > 100 µM (inactive); with SN12C it was > 100 µM (inactive); in the assay on Malme-3M, > 100 µM (inactive). Moreover, in the assay with UACC-62, the GI50 was 63.2 µM (inactive).

In the case of `COc1ccc(CCN2CCOCC2)cc1`, the GI50 in the assay on SNB-19, in the assay on PC-3, with NCI-H522, in the assay on EKVX, with SR and with SW-620 was > 100 µM (inactive) in each case. The GI50 is more than 100 µM with HCT-15; > 100 µM (inactive) in the assay on T47D; > 100 µM (inactive) in the assay with MCF7; > 100 µM (inactive) in the assay on MDA-MB-435; > 100 µM (inactive) in the assay with MOLT-4; > 100 µM (inactive) in the assay with CCRF-CEM. Also, the GI50 in the assay on SK-MEL-5, in the assay with ACHN, in the assay with SN12C, in the assay with HOP-62, with Malme-3M and with UACC-62 was > 100 µM (inactive) each time.

`CC(C)(Oc1ccc2c(=O)cc(-c3ccccc3)oc2c1)C(=O)Nc1c(Cl)cccc1Cl`: the GI50 was > 100 µM (inactive) in the assay with SNB-19; 38 µM (inactive) in the assay on NCI-H522; > 100 µM (inactive) with EKVX; > 100 µM (inactive) in the assay with SR; > 100 µM (inactive) with SW-620; 76.7 µM with HCT-15. The GI50 in the assay with MOLT-4 is 76.4 µM (inactive); in the assay on CCRF-CEM, 57.7 µM (inactive); in the assay with SK-MEL-5, 26.5 µM (inactive); in the assay on HOP-62, > 100 µM (inactive); in the assay with Malme-3M, > 100 µM (inactive); with UACC-62 it was > 100 µM (inactive).

`Cc1[nH]nc(C(=O)N/N=C/c2ccccc2Cl)c1/N=N\N(C)C`: the GI50 in the assay on SNB-19 is > 100 µM (inactive); with PC-3, 5.7 µM (inactive); in the assay with NCI-H522, > 61.4 µM (inactive); with EKVX it was 12.4 µM (inactive); in the assay on SR, 0.171 µM (active); in the assay on SW-620, > 33 µM (inactive). In addition, the GI50 in the assay on HCT-15 was more than 100 µM; in the assay with MDA-MB-435, > 100 µM (inactive); in the assay with MOLT-4, 2.2 µM (inactive); in the assay on CCRF-CEM, 2.59 µM (inactive); in the assay with SK-MEL-5 it was 14.6 µM (inactive); in the assay on BT-549, 2.99 µM (inactive). Also, the GI50 was > 54.6 µM (inactive) in the assay with ACHN; > 54.3 µM (inactive) in the assay with SN12C; 1.34 µM (inactive) in the assay on HOP-62; > 39.4 µM (inactive) in the assay on Malme-3M; > 100 µM (inactive) in the assay with UACC-62.

These data come from ChEMBL document CHEMBL1201862, “PubChem BioAssay data set” (2004).
